From patent US20180244699A1, “1-HYDROXY-3H-2,1-BENZOXABOROLE DERIVATIVES AND THEIR USE AS MICROBIOCIDES” (Syngenta Participations AG, priority 2015, published 2018)

How the values were obtained:
Assay type in all cases: cell-based
[1] = system: Gaeumannomyces graminis; assay: Gaeumannomyces graminis / liquid culture (take-all of cereals); details: growth inhibition photometrically 4-5 days after application, compared to untreated control
Method: (§1) 6. Gaeumannomyces Graminis/Liquid Culture (Take-all of Cereals) Mycelial fragments of the fungus from cryogenic storage were directly mixed into nutrient broth (PDB potato dextrose broth). After placing a (DMSO) solution of test compound into a microtiter plate (96-well format), the nutrient broth containing the fungal spores is added. The test plates are incubated at 24° C. and the inhibition of growth is determined photometrically 4-5 days after application.

[2] = system: Pythium ultimum; assay: Pythium ultimum / liquid culture (seedling damping off); details: Globisporangium ultimum, growth inhibition photometrically 2-3 days after application, compared to untreated control
Method: 15. Pythium ultimum/Liquid Culture (Seedling Damping Off) Mycelia fragments and oospores of a newly grown liquid culture of the fungus are directly mixed into nutrient broth (PDB potato dextrose broth). After placing a (DMSO) solution of test compound into a microtiter plate (96-well format), the nutrient broth containing the fungal mycelia/spore mixture is added. The test plates are incubated at 24° C. and the inhibition of growth is determined photometrically 2-3 days after application.

[3] = system: Monographella nivalis (Microdochium nivale); assay: Monographella nivalis (Microdochium nivale) / liquid culture (foot rot cereals); details: growth inhibition photometrically 4-5 days after application, compared to untreated control
Method: as §1, with “8. Monographella nivalis (Microdochium nivale)/Liquid” for “6. Gaeumannomyces Graminis/Liquid”, “(Foot Rot” for “(Take-all of”, “Conidia” for “Mycelial fragments”, “are” for “were”

Compound	inhibition of growth at 20 ppm [1]	inhibition of growth at 20 ppm [2]	inhibition of growth at 20 ppm [3]
COc1c(C(=O)Oc2ccc(C#N)cc2)ccc2c1B(O)OC2 [Compound 14, (4-cyanophenyl) 1-hydroxy-7-methoxy-3H-2,1-benzoxaborole-6-carboxylate]	≥ 80%	≥ 80%	–
COc1c(C(=O)NCc2c(C)cccc2Cl)ccc2c1B(O)OC2 [Compound 31, N-[(2-chloro-6-methyl-phenyl)methyl]-1-hydroxy-7-methoxy-3H-2,1-benzoxaborole-6-carboxamide]	–	≥ 80%	≥ 80%
CCOc1ccc(NC(=O)c2ccc3c(c2OC)B(O)OC3)cc1Cl [Compound 41, N-(3-chloro-4-ethoxy-phenyl)-1-hydroxy-7-methoxy-3H-2,1-benzoxaborole-6-carboxamide]	–	–	≥ 80%
COc1c(C(=O)Nc2nc(C(C)C)ncc2C)ccc2c1B(O)OC2 [Compound 45, 1-hydroxy-N-(2-isopropyl-5-methyl-pyrimidin-4-yl)-7-methoxy-3H-2,1-benzoxaborole-6-carboxamide]	–	≥ 80%	≥ 80%
COc1c(C(=O)Nc2n[nH]c(C(F)(F)F)n2)ccc2c1B(O)OC2 [Compound 46, 1-hydroxy-7-methoxy-N-[5-(trifluoromethyl)-1H-1,2,4-triazol-3-yl]-3H-2,1-benzoxaborole-6-carboxamide]	–	≥ 80%	≥ 80%
COc1c(C(=O)N(C)c2nnc(C(F)(F)F)s2)ccc2c1B(O)OC2 [Compound 49, 1-hydroxy-7-methoxy-N-methyl-N-[5-(trifluoromethyl)-1,3,4-thiadiazol-2-yl]-3H-2,1-benzoxaborole-6-carboxamide]	–	≥ 80%	≥ 80%
COC(=O)c1cccc(NC(=O)c2ccc3c(c2OC)B(O)OC3)c1 [Compound 52, methyl 3-[(1-hydroxy-7-methoxy-3H-2,1-benzoxaborole-6-carbonyl)amino]benzoate]	–	≥ 80%	≥ 80%
COc1c(C(=O)Nc2ccc(Cl)cc2F)ccc2c1B(O)OC2 [Compound 54, N-(4-chloro-2-fluoro-phenyl)-1-hydroxy-7-methoxy-3H-2,1-benzoxaborole-6-carboxamide]	–	–	≥ 80%
COc1c(C(=O)Nc2ccc(OC(F)(F)F)cc2)ccc2c1B(O)OC2 [Compound 55, 1-hydroxy-7-methoxy-N-[4-(trifluoromethoxy)phenyl]-3H-2,1-benzoxaborole-6-carboxamide]	–	–	≥ 80%
COc1c(C(=O)NC(C)c2ccc(F)cc2)ccc2c1B(O)OC2 (centres unmarked) [Compound 57, N-[1-(4-fluorophenyl)ethyl]-1-hydroxy-7-methoxy-3H-2,1-benzoxaborole-6-carboxamide]	–	≥ 80%	≥ 80%
CCCNC(=O)c1ccc2c(c1OC)B(O)OC2 [Compound 63, 1-hydroxy-7-methoxy-N-propyl-3H-2,1-benzoxaborole-6-carboxamide]	–	≥ 80%	≥ 80%
COc1c(C(=O)Nc2ccc(C)cn2)ccc2c1B(O)OC2 [Compound 66, 1-hydroxy-7-methoxy-N-(5-methyl-2-pyridyl)-3H-2,1-benzoxaborole-6-carboxamide]	–	≥ 80%	≥ 80%
COc1c(C(=O)OCC(OC)c2ccccc2)ccc2c1B(O)OC2 (centres unmarked) [Compound 75, (2-methoxy-2-phenyl-ethyl) 1-hydroxy-7-methoxy-3H-2,1-benzoxaborole-6-carboxylate]	≥ 80%	≥ 80%	≥ 80%
COc1c(C(=O)OCC2CCC=CO2)ccc2c1B(O)OC2 (centres unmarked) [Compound 77, 3,4-dihydro-2H-pyran-2-ylmethyl 1-hydroxy-7-methoxy-3H-2,1-benzoxaborole-6-carboxylate]	≥ 80%	≥ 80%	≥ 80%
COc1c(C(=O)OCC#Cc2ccc(Cl)cc2)ccc2c1B(O)OC2 [Compound 80, 3-(4-chlorophenyl)prop-2-ynyl 1-hydroxy-7-methoxy-3H-2,1-benzoxaborole-6-carboxylate]	≥ 80%	≥ 80%	≥ 80%
COc1c(C(=O)OCCOc2ccc(Cl)cc2)ccc2c1B(O)OC2 [Compound 81, 2-(4-chlorophenoxy)ethyl 1-hydroxy-7-methoxy-3H-2,1-benzoxaborole-6-carboxylate]	≥ 80%	≥ 80%	≥ 80%
COc1c(C(=O)OCc2ncc(Cl)cc2F)ccc2c1B(O)OC2 [Compound 87, (5-chloro-3-fluoro-2-pyridyl)methyl 1-hydroxy-7-methoxy-3H-2,1-benzoxaborole-6-carboxylate]	≥ 80%	≥ 80%	–
COc1c(C(=O)OC(C)c2cc(C(F)(F)F)n[nH]2)ccc2c1B(O)OC2 (centres unmarked) [Compound 91, 1-[3-(trifluoromethyl)-1H-pyrazol-5-yl]ethyl 1-hydroxy-7-methoxy-3H-2,1-benzoxaborole-6-carboxylate]	≥ 80%	≥ 80%	–
COc1c(C(=O)OCCON=C(C)C)ccc2c1B(O)OC2 [Compound 93, 2-(isopropylideneamino)oxyethyl 1-hydroxy-7-methoxy-3H-2,1-benzoxaborole-6-carboxylate]	≥ 80%	≥ 80%	–
COc1c(C(=O)OCn2cnc(Cl)c2Cl)ccc2c1B(O)OC2 [Compound 97, (4,5-dichloroimidazol-1-yl)methyl 1-hydroxy-7-methoxy-3H-2,1-benzoxaborole-6-carboxylate]	≥ 80%	≥ 80%	–
CCOC(=O)CC(OC(=O)c1ccc2c(c1OC)B(O)OC2)C(F)(F)F (centres unmarked) [Compound 101, [3-ethoxy-3-oxo-1-(trifluoromethyl)propyl] 1-hydroxy-7-methoxy-3H-2,1-benzoxaborole-6-carboxylate]	≥ 80%	≥ 80%	–
COc1c(C(=O)OCCn2nc(C)cc2OC(C)=O)ccc2c1B(O)OC2 [Compound 102, 2-(5-acetoxy-3-methyl-pyrazol-1-yl)ethyl 1-hydroxy-7-methoxy-3H-2,1-benzoxaborole-6-carboxylate]	≥ 80%	≥ 80%	–
COc1c(C(=O)OCc2cccc(C)n2)ccc2c1B(O)OC2 [Compound 119, (6-methyl-2-pyridyl)methyl 1-hydroxy-7-methoxy-3H-2,1-benzoxaborole-6-carboxylate]	–	≥ 80%	≥ 80%
COc1c(C(=O)OCc2cc(Cl)ccc2Cl)ccc2c1B(O)OC2 [Compound 120, (2,5-dichlorophenyl)methyl 1-hydroxy-7-methoxy-3H-2,1-benzoxaborole-6-carboxylate]	≥ 80%	–	–
COc1c(C(=O)OCCc2ccccn2)ccc2c1B(O)OC2 [Compound 123, 2-(2-pyridyl)ethyl 1-hydroxy-7-methoxy-3H-2,1-benzoxaborole-6-carboxylate]	–	≥ 80%	–
COc1cc(COC(=O)c2ccc3c(c2OC)B(O)OC3)ccc1O [Compound 126, (4-hydroxy-3-methoxy-phenyl)methyl 1-hydroxy-7-methoxy-3H-2,1-benzoxaborole-6-carboxylate]	–	≥ 80%	–
